Patent US9561249B2, “Pharmaceutical formulations of nitrite and uses thereof” (TheraVasc Inc., priority 2013, dated 2017)
Like-named read-outs stand apart in the source and are kept apart here.

System: subjects with PAD
Details: 40-mg group
Method: Supine vital signs were measured at the Screening Visit. The subject rested in a supine position for a minimum of 3 minutes prior to obtaining vital sign measurements. Vital signs included BP and pulse rate. Postural vital signs, including both supine and standing measurements of blood pressure and pulse rate, were recorded at all study visits following the first dose of IP administration. Measurements were performed as follows: (1) the subject rested in a supine position for a minimum of 3 minutes, (2) vital signs (BP and pulse rate) were measured while the subject was supine, (3) the subject assumed a standing position for a minimum of 5 minutes, and (4) vital signs (BP and pulse rate) were measured while the subject was standing.

[1] = Visit 8 (6 days after dose doubling)

With `O=NO` [sodium nitrite] the “Blood Pressure diastolic, Supine (Mean)” value (Screening (baseline)) was 75.8, the “Blood Pressure systolic, Supine (Mean)” value (Screening (baseline)) was 136.8 and the “Pulse, Supine (Mean)” value (Screening (baseline)) was 71.4. For the same compound, the “Blood Pressure diastolic, Standing (Mean)” value (Visit 1 (Day 0)) was 73.1, the “Blood Pressure diastolic, Supine (Mean)” value (Visit 1 (Day 0)) was 72.3 and the “Blood Pressure systolic, Standing (Mean)” value (Visit 1 (Day 0)) was 129.5. For the same compound, the “Blood Pressure systolic, Supine (Mean)” value (Visit 1 (Day 0)) was 129.7, the “Diastolic BP, Orthostatic Changes” value (Visit 1 (Day 0)) was 0.8 and the “Pulse, Orthostatic Changes” value (Visit 1 (Day 0)) was 1.8. For the same compound, the “Pulse, Standing (Mean)” value (Visit 1 (Day 0)) was 75.8, the “Pulse, Supine (Mean)” value (Visit 1 (Day 0)) was 74.1 and the “Systolic BP, Orthostatic Changes” value (Visit 1 (Day 0)) was −0.3. The “Blood Pressure diastolic, Standing (Mean)” value (Visit 2 (Day 1)) was 72.6, the “Blood Pressure diastolic, Supine (Mean)” value (Visit 2 (Day 1)) was 70.5 and the “Blood Pressure systolic, Standing (Mean)” value (Visit 2 (Day 1)) was 128.3. For the same compound, the “Blood Pressure systolic, Supine (Mean)” value (Visit 2 (Day 1)) was 128.0, the “Diastolic BP, Orthostatic Changes” value (Visit 2 (Day 1)) was 2.1 and the “Pulse, Orthostatic Changes” value (Visit 2 (Day 1)) was 4.5. For the same compound, the “Pulse, Standing (Mean)” value (Visit 2 (Day 1)) was 78.6, the “Pulse, Supine (Mean)” value (Visit 2 (Day 1)) was 74.1 and the “Systolic BP, Orthostatic Changes” value (Visit 2 (Day 1)) was 0.3. For the same compound, the “Blood Pressure diastolic, Standing (Mean)” value (Visit 3 (Day 4)) was 73.1, the “Blood Pressure diastolic, Supine (Mean)” value (Visit 3 (Day 4)) was 72.5 and the “Blood Pressure systolic, Standing (Mean)” value (Visit 3 (Day 4)) was 129.4. The “Blood Pressure systolic, Supine (Mean)” value (Visit 3 (Day 4)) was 129.8, the “Diastolic BP, Orthostatic Changes” value (Visit 3 (Day 4)) was 0.6 and the “Pulse, Orthostatic Changes” value (Visit 3 (Day 4)) was 2.0. The “Pulse, Standing (Mean)” value (Visit 3 (Day 4)) was 76.7, the “Pulse, Supine (Mean)” value (Visit 3 (Day 4)) was 74.7 and the “Systolic BP, Orthostatic Changes” value (Visit 3 (Day 4)) was −0.4. The “Blood Pressure diastolic, Standing (Mean)” value (Visit 4 (Day 14)) was 71.0, the “Blood Pressure diastolic, Supine (Mean)” value (Visit 4 (Day 14)) was 71.1 and the “Blood Pressure systolic, Standing (Mean)” value (Visit 4 (Day 14)) was 124.9. The “Blood Pressure systolic, Supine (Mean)” value (Visit 4 (Day 14)) was 128.4, the “Diastolic BP, Orthostatic Changes” value (Visit 4 (Day 14)) was −0.1 and the “Pulse, Orthostatic Changes” value (Visit 4 (Day 14)) was 3.9. For the same compound, the “Pulse, Standing (Mean)” value (Visit 4 (Day 14)) was 75.6, the “Pulse, Supine (Mean)” value (Visit 4 (Day 14)) was 71.7 and the “Systolic BP, Orthostatic Changes” value (Visit 4 (Day 14)) was −3.4. The “Blood Pressure diastolic, Standing (Mean)” value (Visit 5 (Day 28)) was 71.6, the “Blood Pressure diastolic, Supine (Mean)” value (Visit 5 (Day 28)) was 72.0 and the “Blood Pressure systolic, Standing (Mean)” value (Visit 5 (Day 28)) was 124.3. For the same compound, the “Blood Pressure systolic, Supine (Mean)” value (Visit 5 (Day 28)) was 124.1, the “Diastolic BP, Orthostatic Changes” value (Visit 5 (Day 28)) was −0.4 and the “Pulse, Orthostatic Changes” value (Visit 5 (Day 28)) was 3.8. The “Pulse, Standing (Mean)” value (Visit 5 (Day 28)) was 76.6, the “Pulse, Supine (Mean)” value (Visit 5 (Day 28)) was 72.7 and the “Systolic BP, Orthostatic Changes” value (Visit 5 (Day 28)) was 0.3. The “Blood Pressure diastolic, Standing (Mean)” value (Visit 6 (Day 70)) was 73.2, the “Blood Pressure diastolic, Supine (Mean)” value (Visit 6 (Day 70)) was 73.7 and the “Blood Pressure systolic, Standing (Mean)” value (Visit 6 (Day 70)) was 127.6. For the same compound, the “Blood Pressure systolic, Supine (Mean)” value (Visit 6 (Day 70)) was 127.3, the “Diastolic BP, Orthostatic Changes” value (Visit 6 (Day 70)) was −0.5 and the “Pulse, Orthostatic Changes” value (Visit 6 (Day 70)) was 3.5. For the same compound, the “Pulse, Standing (Mean)” value (Visit 6 (Day 70)) was 73.9, the “Pulse, Supine (Mean)” value (Visit 6 (Day 70)) was 7034 and the “Systolic BP, Orthostatic Changes” value (Visit 6 (Day 70)) was 0.3. For the same compound, the “Blood Pressure diastolic, Standing (Mean)” value (Visit 7 (Day 71, dose doubled)) was 73.2, the “Blood Pressure diastolic, Supine (Mean)” value (Visit 7 (Day 71, dose doubled)) was 71.3 and the “Blood Pressure systolic, Standing (Mean)” value (Visit 7 (Day 71, dose doubled)) was 122.2. For the same compound, the “Blood Pressure systolic, Supine (Mean)” value (Visit 7 (Day 71, dose doubled)) was 126.7, the “Diastolic BP, Orthostatic Changes” value (Visit 7 (Day 71, dose doubled)) was 1.9 and the “Pulse, Orthostatic Changes” value (Visit 7 (Day 71, dose doubled)) was 3.2. The “Pulse, Standing (Mean)” value (Visit 7 (Day 71, dose doubled)) was 76.3, the “Pulse, Supine (Mean)” value (Visit 7 (Day 71, dose doubled)) was 73.1 and the “Systolic BP, Orthostatic Changes” value (Visit 7 (Day 71, dose doubled)) was −4.5. For the same compound, the “Blood Pressure diastolic, Standing (Mean)” value [1] was 68.7, the “Blood Pressure diastolic, Supine (Mean)” value [1] was 72.2 and the “Blood Pressure systolic, Standing (Mean)” value [1] was 123.1. The “Blood Pressure systolic, Supine (Mean)” value [1] was 130.0, the “Diastolic BP, Orthostatic Changes” value [1] was −3.5 and the “Pulse, Orthostatic Changes” value [1] was 4.1. The “Pulse, Standing (Mean)” value [1] was 74.3, the “Pulse, Supine (Mean)” value [1] was 70.2 and the “Systolic BP, Orthostatic Changes” value [1] was −6.9.
